Measurements taken from publication PMC12152147, “DDB1 engagement defines the selectivity of S656 analogs for cyclin K degradation over CDK inhibition” (EMBO Reports, 2025).
pIC50: −log10 of the molar value. Several values for one entry are separate records, joined by “and”; a condition that tells them apart may be missing. Equal entries are not always repeated. Where two headings read alike, the source gives them in different places.

What was measured:
OCI-AML5 cells = experiment: Dose-response proliferative assay in OCI-AML5 (4 days, CellTiterGlo); format: cell-based, H. sapiens
Summary of the method: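 OCI-AML5 cells in αMEM, 10% heat-inactivated FBS plus 10 ng/mL GM-CSF, 300 cells/well, exposed to 8-point 1:4 serial dilutions (10 μM down to 0.5 nM). Viability read after 4 days in culture at 37 °C, 5% CO2.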

[1] = system: OCI-AML5 cells expressing shRNAs targeting CDK1, 2, 4, 7, 9, cyclin K; experiment: Dose response in OCI-AML5 expressing shRNAs targeting CDK1, 2, 4, 7, 9, cyclin K or control; format: cell-based, H. sapiens
cyclin KeGFP = experiment: Cyclin KeGFP reporter system (eGFP/mCherry MFI by flow cytometry);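 as to % degradation cyclin K-eGFP: 10 μM compound for 3 h relative to DMSO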; format: cell-based, H. sapiens
Summary of the method: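 OCI-AML5 clone G7 carrying lentiviral cyclin KeGFP/mCherry reporter. eGFP and mCherry geometric MFI measured by flow cytometry; eGFP/mCherry ratio normalized to DMSO-treated cells.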

[2] = system: OCI-AML5 cells expressing shRNA targeting CUL4A or CUL4B; experiment: Dose response in OCI-AML5 expressing shRNAs targeting CUL4A, CUL4B or control; format: cell-based, H. sapiens
CDK9/CyclinT = molecular target: T1, CDK9/CyclinT (Homo sapiens, UniProt P50750); experiment: CDK9/CyclinT in vitro kinase activity, single concentration 1 μM; format: biochemical
T1 construct: purchased BPS Bioscience 79628
Procedure: (§1) Kinase activity was assessed using the kinase assay kits from BPS Bioscience for CDK1, CDK9 and CDK12 with Kinase Glo MAX in duplicates. Compounds were tested at a single concentration of 1 μM for CDK1 and CDK9 activity, and in a dilution ranging from 0.64 nM to 50 μM for CDK12 activity. Chemiluminescence was read using the Neo Synergy BioTek plate reader.

CDK1 = molecular target: T2, CDK1 (Homo sapiens, UniProt P06493); experiment: CDK1 in vitro kinase activity, single concentration 1 μM; format: biochemical
T2 construct: purchased BPS Bioscience 79597
Procedure: as §1

CDK12/Cyclin K = molecular target: T3, CDK12/Cyclin K (Homo sapiens, UniProt Q9NYV4); experiment: CDK12/CyclinK in vitro kinase assay (BPS kit, Kinase Glo MAX); format: biochemical; conditions: for in vitro inhibition of CDK12/Cyclin K activity: in % (unit assumed)
T3 construct: purchased BPS Bioscience 78298
Procedure: as §1

primary AML specimens = experiment: Dose-response assays in primary AML specimens (6 days, CellTiterGlo); format: cell-based, human; conditions: Homo sapiens, 144 h
Summary of the method: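 Primary AML cells in IMDM/15% BIT with SCF, FLT3L, IL3, G-CSF, SR1 and UM729 were exposed to 8-point 1:4 dilutions (10 μM to 0.5 nM) for 6 days. Viability came from CellTiterGlo luminescence, with % inhibition versus DMSO (0.1%) fitted by nonlinear regression.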

T3 sequence (Q9NYV4 whole entry): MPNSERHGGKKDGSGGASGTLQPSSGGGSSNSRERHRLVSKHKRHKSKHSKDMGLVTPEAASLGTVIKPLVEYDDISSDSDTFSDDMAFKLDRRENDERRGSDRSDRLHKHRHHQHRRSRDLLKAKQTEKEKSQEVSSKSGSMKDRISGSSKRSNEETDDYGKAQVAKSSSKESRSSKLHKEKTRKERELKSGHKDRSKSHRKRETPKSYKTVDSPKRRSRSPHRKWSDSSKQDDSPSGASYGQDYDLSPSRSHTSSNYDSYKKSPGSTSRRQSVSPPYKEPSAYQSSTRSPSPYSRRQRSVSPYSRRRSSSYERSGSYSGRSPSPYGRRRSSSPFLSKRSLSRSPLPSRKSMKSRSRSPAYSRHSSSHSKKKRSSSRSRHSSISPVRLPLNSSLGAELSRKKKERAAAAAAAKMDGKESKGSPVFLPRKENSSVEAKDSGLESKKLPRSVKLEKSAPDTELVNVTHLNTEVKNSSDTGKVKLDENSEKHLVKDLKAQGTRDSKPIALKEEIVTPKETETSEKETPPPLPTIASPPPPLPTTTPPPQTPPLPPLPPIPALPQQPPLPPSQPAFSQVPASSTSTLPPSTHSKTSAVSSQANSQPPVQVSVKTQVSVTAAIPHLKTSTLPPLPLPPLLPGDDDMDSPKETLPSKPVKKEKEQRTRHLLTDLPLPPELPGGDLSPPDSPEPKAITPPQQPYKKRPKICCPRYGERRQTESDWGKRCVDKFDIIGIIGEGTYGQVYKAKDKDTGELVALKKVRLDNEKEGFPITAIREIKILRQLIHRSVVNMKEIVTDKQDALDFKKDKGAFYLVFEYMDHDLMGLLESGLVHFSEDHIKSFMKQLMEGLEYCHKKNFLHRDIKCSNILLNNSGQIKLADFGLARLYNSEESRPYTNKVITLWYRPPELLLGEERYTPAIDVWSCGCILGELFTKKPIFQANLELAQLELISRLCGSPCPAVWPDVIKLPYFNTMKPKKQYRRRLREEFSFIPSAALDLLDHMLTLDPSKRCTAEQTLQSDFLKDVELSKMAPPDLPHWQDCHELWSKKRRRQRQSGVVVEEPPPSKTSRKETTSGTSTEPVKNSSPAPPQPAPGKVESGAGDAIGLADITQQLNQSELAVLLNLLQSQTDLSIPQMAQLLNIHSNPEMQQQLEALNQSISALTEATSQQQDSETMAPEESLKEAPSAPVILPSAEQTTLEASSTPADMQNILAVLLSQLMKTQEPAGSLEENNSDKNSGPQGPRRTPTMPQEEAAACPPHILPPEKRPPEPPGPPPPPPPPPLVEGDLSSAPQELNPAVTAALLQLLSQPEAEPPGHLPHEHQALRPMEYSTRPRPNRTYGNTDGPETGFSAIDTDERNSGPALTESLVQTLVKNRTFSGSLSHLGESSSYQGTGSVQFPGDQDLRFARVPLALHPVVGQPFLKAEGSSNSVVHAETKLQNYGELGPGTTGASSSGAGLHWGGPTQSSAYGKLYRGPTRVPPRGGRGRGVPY
T3 sequence (O75909 whole entry partner): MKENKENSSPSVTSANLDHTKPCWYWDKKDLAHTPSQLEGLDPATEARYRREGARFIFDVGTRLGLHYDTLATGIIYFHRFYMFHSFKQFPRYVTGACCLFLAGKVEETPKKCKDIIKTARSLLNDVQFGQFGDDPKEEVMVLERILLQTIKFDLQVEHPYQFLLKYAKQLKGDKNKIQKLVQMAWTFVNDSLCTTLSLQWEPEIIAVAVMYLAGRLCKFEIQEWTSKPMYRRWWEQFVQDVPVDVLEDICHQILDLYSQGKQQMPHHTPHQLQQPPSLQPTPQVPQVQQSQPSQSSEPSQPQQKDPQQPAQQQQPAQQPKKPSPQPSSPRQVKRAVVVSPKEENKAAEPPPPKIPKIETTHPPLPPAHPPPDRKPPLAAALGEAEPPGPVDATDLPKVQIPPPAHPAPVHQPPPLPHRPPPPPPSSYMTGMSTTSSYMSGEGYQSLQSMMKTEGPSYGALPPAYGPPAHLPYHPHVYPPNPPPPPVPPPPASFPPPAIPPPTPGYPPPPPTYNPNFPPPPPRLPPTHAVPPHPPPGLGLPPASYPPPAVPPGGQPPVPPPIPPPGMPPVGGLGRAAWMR
T1 sequence (P50750 whole entry): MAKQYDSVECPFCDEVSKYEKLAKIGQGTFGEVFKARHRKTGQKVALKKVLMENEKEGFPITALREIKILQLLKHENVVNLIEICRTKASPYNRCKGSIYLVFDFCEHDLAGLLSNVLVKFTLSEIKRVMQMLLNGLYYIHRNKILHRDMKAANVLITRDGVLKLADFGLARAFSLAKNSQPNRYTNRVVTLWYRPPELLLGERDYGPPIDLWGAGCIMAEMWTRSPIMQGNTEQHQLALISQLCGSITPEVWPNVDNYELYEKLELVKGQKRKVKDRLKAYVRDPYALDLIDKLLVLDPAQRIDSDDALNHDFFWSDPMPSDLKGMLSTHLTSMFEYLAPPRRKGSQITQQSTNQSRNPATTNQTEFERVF
T1 sequence (O60563 whole entry partner): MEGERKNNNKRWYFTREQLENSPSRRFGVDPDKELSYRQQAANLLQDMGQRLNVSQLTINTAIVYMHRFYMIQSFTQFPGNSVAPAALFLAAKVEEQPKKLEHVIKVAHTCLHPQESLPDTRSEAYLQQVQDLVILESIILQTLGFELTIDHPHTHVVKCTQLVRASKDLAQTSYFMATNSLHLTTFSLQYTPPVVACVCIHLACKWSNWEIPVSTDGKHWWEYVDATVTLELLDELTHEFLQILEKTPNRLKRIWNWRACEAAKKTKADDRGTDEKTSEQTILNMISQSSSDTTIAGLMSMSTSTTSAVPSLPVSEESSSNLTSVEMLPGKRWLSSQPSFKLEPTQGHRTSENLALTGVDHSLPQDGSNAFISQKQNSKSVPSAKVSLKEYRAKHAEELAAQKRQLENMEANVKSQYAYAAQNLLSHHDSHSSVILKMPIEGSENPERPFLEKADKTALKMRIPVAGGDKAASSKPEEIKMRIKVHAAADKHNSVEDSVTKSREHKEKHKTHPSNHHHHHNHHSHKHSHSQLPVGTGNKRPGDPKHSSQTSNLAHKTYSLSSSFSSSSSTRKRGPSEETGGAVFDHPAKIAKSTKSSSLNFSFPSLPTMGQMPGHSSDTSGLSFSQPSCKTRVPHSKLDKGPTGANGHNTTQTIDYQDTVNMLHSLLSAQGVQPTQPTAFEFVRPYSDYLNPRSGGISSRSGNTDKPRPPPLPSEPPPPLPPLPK
T2 sequence (P06493 whole entry): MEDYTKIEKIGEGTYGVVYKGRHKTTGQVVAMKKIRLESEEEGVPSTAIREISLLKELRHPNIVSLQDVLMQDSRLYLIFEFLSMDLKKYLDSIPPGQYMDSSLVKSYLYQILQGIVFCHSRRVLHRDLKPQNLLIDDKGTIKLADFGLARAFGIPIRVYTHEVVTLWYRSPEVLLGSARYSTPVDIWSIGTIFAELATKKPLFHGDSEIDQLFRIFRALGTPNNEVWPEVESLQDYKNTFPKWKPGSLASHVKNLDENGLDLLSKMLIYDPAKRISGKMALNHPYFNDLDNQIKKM
T2 sequence (P14635 whole entry partner): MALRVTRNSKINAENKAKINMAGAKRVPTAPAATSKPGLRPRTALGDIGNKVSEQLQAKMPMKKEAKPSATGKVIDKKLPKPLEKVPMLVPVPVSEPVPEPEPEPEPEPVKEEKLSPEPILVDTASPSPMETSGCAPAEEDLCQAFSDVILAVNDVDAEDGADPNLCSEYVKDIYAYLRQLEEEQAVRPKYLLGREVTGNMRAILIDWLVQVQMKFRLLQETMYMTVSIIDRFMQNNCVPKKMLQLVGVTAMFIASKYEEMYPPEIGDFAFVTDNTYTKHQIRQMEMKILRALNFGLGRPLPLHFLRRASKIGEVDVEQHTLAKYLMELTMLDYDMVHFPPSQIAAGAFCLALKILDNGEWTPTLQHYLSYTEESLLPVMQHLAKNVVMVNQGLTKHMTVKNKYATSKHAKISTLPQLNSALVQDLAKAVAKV

With `CN(C)c1ccc(CC(=O)Nc2ncc(SCc3cccnc3)s2)cc1` [S656] the pIC50 (OCI-AML5 cells; Homo sapiens, OCI-AML-5, 96 h, 4 days incubation, read-out: IC50 OCI-AML5) was 6.13, the pIC50 (OCI-AML5 cells; Homo sapiens, OCI-AML-5, 96 h, OCI-AML5, regular media, 4 days, read-out: S656 IC50, Media) was 6.02 and the pIC50 (OCI-AML5 cells; OCI-AML5, regular media, 4 days, read-out: S656 IC50, Media) was 6.17 and 6.15. The pIC50 ([1]; Homo sapiens, OCI-AML-5, 96 h, OCI-AML5, 4 days, read-out: IC50, sh CDK1) was 6.30, the pIC50 ([1]; Homo sapiens, OCI-AML-5, 96 h, OCI-AML5, 4 days, read-out: IC50, sh CDK2) was 6.07 and the pIC50 ([1]; Homo sapiens, OCI-AML-5, 96 h, OCI-AML5, 4 days, read-out: IC50, sh CDK4) was 6.24. For the same molecule, the pIC50 ([1]; Homo sapiens, OCI-AML-5, 96 h, OCI-AML5, 4 days, read-out: IC50, sh CDK7) was 6.10, the pIC50 ([1]; Homo sapiens, OCI-AML-5, 96 h, OCI-AML5, 4 days, read-out: IC50, sh CDK9) was 6.26 and the pIC50 ([1]; Homo sapiens, OCI-AML-5, 96 h, OCI-AML5, 4 days, read-out: IC50, sh Cyclin K) was 6.76. For the same molecule, the pIC50 ([1]; Homo sapiens, OCI-AML-5, 96 h, OCI-AML5, 4 days, read-out: IC50, sh ctrl) was 6.12, the pIC50 ([1]; Homo sapiens, OCI-AML-5, OCI-AML5 expressing shRNA CCNK (cyclin K), read-out: IC50 shRNA CCNK) was 6.71 and the pIC50 ([1]; Homo sapiens, OCI-AML-5, OCI-AML5 expressing shRNA CDK1, read-out: IC50 shRNA CDK1) was 6.32. For the same molecule, the pIC50 ([1]; Homo sapiens, OCI-AML-5, OCI-AML5 expressing shRNA CDK2, read-out: IC50 shRNA CDK2) was 6.10, the pIC50 ([1]; Homo sapiens, OCI-AML-5, OCI-AML5 expressing shRNA CDK4, read-out: IC50 shRNA CDK4) was 6.16 and the pIC50 ([1]; Homo sapiens, OCI-AML-5, OCI-AML5 expressing shRNA CDK9, read-out: IC50 shRNA CDK9) was 6.26. For the same molecule, the pIC50 ([1]; OCI-AML5, 4 days, read-out: IC50, sh CDK1) was 6.32, the pIC50 ([1]; OCI-AML5, 4 days, read-out: IC50, sh CDK2) was 6.03 and 6.16 and the pIC50 ([1]; OCI-AML5, 4 days, read-out: IC50, sh CDK4) was 6.13 and 6.18. For the same molecule, the pIC50 ([1]; OCI-AML5, 4 days, read-out: IC50, sh CDK7) was 6.11 and 6.18, the pIC50 ([1]; OCI-AML5, 4 days, read-out: IC50, sh CDK9) was 6.23 and 6.20 and the pIC50 ([1]; OCI-AML5, 4 days, read-out: IC50, sh Cyclin K) was 6.54 and 6.73. The pIC50 ([1]; OCI-AML5, 4 days, read-out: IC50, sh ctrl) was 6.15 and 6.18, the Class ([1]; class from shRNA IC50 profile and cyclin K-eGFP degradation) was “mixed 1-2” and the “% cyclin KeGFP degradation” value (cyclin KeGFP; 3 h, 10 μM, compared to DMSO, OCI-AML5 G7 clone) was 75%. The “MFI of cyclin KeGFP over mCherry” value (cyclin KeGFP; OCI-AML5 G7 clone, 3 h, 10 μM, normalized to DMSO (=100)) was 23.8 and 23.9 and 23.3 and 23.2 and 22.8, the “% degradation cyclin K-eGFP” value (cyclin KeGFP; cyclin K-eGFP reporter) was 75% and the “potency upon CUL4A or CUL4B downregulation (for SNS-032, THZ531 also DDB1 depletion)” value ([2]; OCI-AML5, 4 days) was “impaired”. The “Ratio shCUL4A/shCTRL” value ([2]; ratio of IC50 in shCUL4A vs shCTRL OCI-AML5 cells) was 2.79, the “in vitro inhibitory activity for CDK9” value (CDK9/CyclinT; 1 μM) was “displays in vitro inhibitory activity” and the inhibition at 1 µM (CDK9/CyclinT; single concentration 1 μM) was 59%. The “in vitro inhibitory activity for CDK1” value (CDK1; 1 μM) was “displays in vitro inhibitory activity”, the inhibition at 1 µM (CDK1; single concentration 1 μM) was 70% and the “in vitro inhibition of CDK12/Cyclin K activity” value (CDK12/Cyclin K; Log10 (uM) 0.30103) was 29.97 and 30.05 and 16.95. For the same molecule, the “in vitro inhibition of CDK12/Cyclin K activity” value (CDK12/Cyclin K; Log10 (uM) 1) was 64.47 and 62.45 and 59.28, the “in vitro inhibition of CDK12/Cyclin K activity” value (CDK12/Cyclin K; Log10 (uM) 1.69897) was 82.67 and 75.84 and 109.95 and the pIC50 (CDK12/Cyclin K; read-out: IC50, in vitro inhibition of CDK12/Cyclin K activity) was 5.22. It also gave a pIC50 (primary AML specimens; primary AML specimen 03H109, 6 days, read-out: IC50) of 6.12, a pIC50 (primary AML specimens; primary AML specimen 04H055, 6 days, read-out: IC50) of 5.98 and a pIC50 (primary AML specimens; primary AML specimen 04H096, 6 days, read-out: IC50) of 6.07. For the same molecule, the pIC50 (primary AML specimens; primary AML specimen 04H138, 6 days, read-out: IC50) was 5.70, the pIC50 (primary AML specimens; primary AML specimen 05H113, 6 days, read-out: IC50) was 6.05 and the pIC50 (primary AML specimens; primary AML specimen 05H149, 6 days, read-out: IC50) was 5.86. For the same molecule, the pIC50 (primary AML specimens; primary AML specimen 05H193, 6 days, read-out: IC50) was 6.00, the pIC50 (primary AML specimens; primary AML specimen 06H088, 6 days, read-out: IC50) was 5.90 and the pIC50 (primary AML specimens; primary AML specimen 06H117, 6 days, read-out: IC50) was 6.01. The pIC50 (primary AML specimens; primary AML specimen 06H151, 6 days, read-out: IC50) was 6.17, the pIC50 (primary AML specimens; primary AML specimen 07H003, 6 days, read-out: IC50) was 5.66 and the pIC50 (primary AML specimens; primary AML specimen 07H131, 6 days, read-out: IC50) was 5.57. The pIC50 (primary AML specimens; primary AML specimen 07H144, 6 days, read-out: IC50) was 6.00, the pIC50 (primary AML specimens; primary AML specimen 07H155, 6 days, read-out: IC50) was 5.61 and the pIC50 (primary AML specimens; primary AML specimen 08H018, 6 days, read-out: IC50) was 5.66. It also gave a pIC50 (primary AML specimens; primary AML specimen 08H021, 6 days, read-out: IC50) of 5.99, a pIC50 (primary AML specimens; primary AML specimen 08H056, 6 days, read-out: IC50) of 5.67 and a pIC50 (primary AML specimens; primary AML specimen 08H063, 6 days, read-out: IC50) of 5.62. The pIC50 (primary AML specimens; primary AML specimen 08H085, 6 days, read-out: IC50) was 5.99, the pIC50 (primary AML specimens; primary AML specimen 08H108, 6 days, read-out: IC50) was 6.08 and the pIC50 (primary AML specimens; primary AML specimen 08H118, 6 days, read-out: IC50) was 6.05. It also gave a pIC50 (primary AML specimens; primary AML specimen 09H016, 6 days, read-out: IC50) of 6.01, a pIC50 (primary AML specimens; primary AML specimen 09H070, 6 days, read-out: IC50) of 5.65 and a pIC50 (primary AML specimens; primary AML specimen 10H014, 6 days, read-out: IC50) of 6.07. For the same molecule, the pIC50 (primary AML specimens; primary AML specimen 10H046, 6 days, read-out: IC50) was 6.01, the pIC50 (primary AML specimens; primary AML specimen 10H107, 6 days, read-out: IC50) was 5.81 and the pIC50 (primary AML specimens; primary AML specimen 10H127, 6 days, read-out: IC50) was 5.84. The pIC50 (primary AML specimens; primary AML specimen 10H161, 6 days, read-out: IC50) was 5.93, the pIC50 (primary AML specimens; primary AML specimen 10H174, 6 days, read-out: IC50) was 6.05 and the pIC50 (primary AML specimens; primary AML specimen 11H008, 6 days, read-out: IC50) was 5.84. The pIC50 (primary AML specimens; primary AML specimen 11H019, 6 days, read-out: IC50) was 5.96, the pIC50 (primary AML specimens; primary AML specimen 11H170, 6 days, read-out: IC50) was 5.63 and the pIC50 (primary AML specimens; primary AML specimen 11H217, 6 days, read-out: IC50) was 5.91. For the same molecule, the pIC50 (primary AML specimens; primary AML specimen 11H232, 6 days, read-out: IC50) was 5.95, the pIC50 (primary AML specimens; primary AML specimen 12H033, 6 days, read-out: IC50) was 5.62 and the pIC50 (primary AML specimens; primary AML specimen 12H055, 6 days, read-out: IC50) was 5.86. For the same molecule, the pIC50 (primary AML specimens; primary AML specimen 12H148, 6 days, read-out: IC50) was 5.83, the pIC50 (primary AML specimens; primary AML specimen 13H053, 6 days, read-out: IC50) was 5.66 and the pIC50 (primary AML specimens; primary AML specimen 15H045, 6 days, read-out: IC50) was 6.17. It also gave a pIC50 (primary AML specimens; primary AML specimen 17H065, 6 days, read-out: IC50) of 5.81 and a pIC50 (primary AML specimens; read-out: median IC50 in a panel of 40 primary AMLs, 6 days) of 5.92.
